For assay [1], the target named is TACE (Homo sapiens (Human), UniProt P78536). Put plainly: TACE inhibition test (in vitro). The class given is biochemical. The following applies: fluorescent synthetic substrate, 37° C., 1.5 hours. Summed up:
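Recombinant enzyme (cDNA from THP-1 cells, expressed in mammalian or insect cells) with quenched substrate Nma-Leu-Ala-Gln-Ala-Val-Arg-Ser-Ser-Lys(Dnp)-D-Arg-NH2. Incubated 1.5 h at 37 °C; fluorescence read at ex 355/em 460 nm; IC50 from inhibition rate.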

In assay [2] the test system is auricular oedema induced by TPA in BALB/c mice. Put plainly: Inhibition test of auricular oedema induced by single application of TPA in mouse. Format: in vivo. The note with it: 1 w/v % solution applied topically to ear 1 hour before TPA, auricle thickness 6 hours after TPA, read-out: Auricular oedema inhibition rate (%). The protocol: Inhibition Test of Auricular Oedema Induced by Single Application of TPA (12-O-tetradecanoylphorbol-13-acetate) in Mouse (In Vivo Efficacy Test Based on TNF-α-Related Cutaneous Inflammation)
Auricular oedema was induced by applying 54 μmol/L TPA-acetone solution on both the inner and outer sides of the left ear of BALB/c mice (application volume of 54 μmol/L TPA-acetone solution is 10 μL for each side of the left ear (i.e. 1.08 nmol TPA/auricle)). For a non-induced group, acetone was similarly applied instead of the 54 μmol/L TPA-acetone solution. The test substance was dissolved and prepared in a 1 w/v % solution of acetone containing 10 vol % DMSO (topical administration vehicle), then the test solution was applied onto both the inner and outer sides of the left ear of the mice (application volume of this test solution is 10 μL for each side of the left ear) 1 hour before the TPA application. For a control group, the topical administration vehicle was similarly applied instead of the test substance solution. For an etanercept group, 0.2 mL of a 5 mg/mL etanercept solution was intravenously administered (1 mg/mouse) the day before TPA application and 1.5 hours before TPA application. For a human IgG (hIgG) group (etanercept control group), 0.2 mL of a 5 mg/mL hIgG solution was intravenously administered (1 mg/mouse). Auricle thickness was measured under ether anesthesia the day before TPA application and 6 hours after TPA application for evaluation of the auricular oedema inhibition effect of the test substance based on the increase in auricle thickness as an index.
The auricular oedema inhibition rate (%) of the test substance was calculated based on the following formula using (A) the average value of the increase in auricular thickness of the group administered with the test substance, (B) the average value of the increase in auricular thickness of the non-induced group, and (C) the average value of the increase in auricular thickness of the control group. […]

Molecules are shown by their SMILES.

TACE, sequence (P78536 215-824): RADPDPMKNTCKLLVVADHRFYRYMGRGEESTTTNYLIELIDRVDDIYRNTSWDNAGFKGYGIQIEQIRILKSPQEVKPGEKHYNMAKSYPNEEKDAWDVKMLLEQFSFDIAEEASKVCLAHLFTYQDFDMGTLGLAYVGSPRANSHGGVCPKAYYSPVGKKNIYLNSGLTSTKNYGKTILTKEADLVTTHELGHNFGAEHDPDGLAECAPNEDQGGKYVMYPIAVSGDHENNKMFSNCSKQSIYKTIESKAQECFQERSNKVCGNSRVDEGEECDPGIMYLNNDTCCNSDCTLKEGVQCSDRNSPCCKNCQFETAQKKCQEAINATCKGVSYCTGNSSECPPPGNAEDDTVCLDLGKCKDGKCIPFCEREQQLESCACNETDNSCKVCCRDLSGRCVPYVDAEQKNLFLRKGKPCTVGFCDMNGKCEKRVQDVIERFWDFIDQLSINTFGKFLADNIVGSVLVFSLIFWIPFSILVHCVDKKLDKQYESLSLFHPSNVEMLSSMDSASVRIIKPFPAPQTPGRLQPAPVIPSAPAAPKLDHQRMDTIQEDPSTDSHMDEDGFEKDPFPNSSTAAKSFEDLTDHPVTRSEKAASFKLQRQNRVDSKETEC

`Cc1cccn(CC2(c3ccc(OC4C=CCCC4)cc3)NC(=O)NC2=O)c1=O` (stereo not drawn) [Compound I-36, 5-[4-(cyclohex-2-en-1-yloxy)phenyl]-5-[(3-methyl-2-oxopyridin-1(2H)-yl)methyl]imidazolidine-2,4-dione]: in assay [1], the half-maximal inhibitory concentration (IC50) is below 100 nM. Further, in assay [2], the inhibition in vivo at 10000 µg/mL turned out to be 58%.
In assay [1], `Cc1cccn(CC2(c3ccc(OC4CCCCC4)cc3)NC(=O)NC2=O)c1=O` (stereo not drawn) [Compound I-37, 5-[4-(cyclohexyloxy)phenyl]-5-[(3-methyl-2-oxopyridin-1(2H)-yl)methyl]imidazolidine-2,4-dione] came in with an IC50 below 100 nM. The inhibition in vivo at 10000 µg/mL in assay [2] worked out at 78%.
In the same order, the values of `Cc1cc(C2(Cn3cccc(C)c3=O)NC(=O)NC2=O)ccc1OC1C=CCCC1` (stereo not drawn) [Compound I-38] are below 100 nM and 41%.
In assay [1], `Cc1cccn(CC2(c3ccc(Oc4cccc(F)c4)cc3)NC(=O)NC2=O)c1=O` (stereo not drawn) [Compound I-84] came in with an IC50 below 100 nM. Besides, the inhibition in vivo at 10000 µg/mL in assay [2] was 53%.
With `Cc1cccn(CC2(c3ccc(Oc4ccc(F)cc4)cc3)NC(=O)NC2=O)c1=O` (stereo not drawn) [Compound I-85], the IC50 in assay [1] is below 100 nM. In addition, the inhibition in vivo at 10000 µg/mL in assay [2] was determined as 78%.
The compound `Cc1cccn(CC2(c3ccc(Sc4ccccc4)cc3)NC(=O)NC2=O)c1=O` (stereo not drawn) [Compound I-102] displayed an IC50 in assay [1] below 100 nM. For the same compound, the inhibition in vivo at 10000 µg/mL in assay [2] stood at 50%.
The compound `Cc1cc(C2(Cn3cccc(C)c3=O)NC(=O)NC2=O)cc(C)c1OC1CCCC1` (stereo not drawn) [Compound I-129] showed an IC50 in assay [1] below 100 nM. The inhibition in vivo at 10000 µg/mL in assay [2] was 71%.
Take `Cc1cccn(CC2(c3ccc(Oc4ccc(Cl)cc4)cc3)NC(=O)NC2=O)c1=O` (stereo not drawn) [Compound I-130]: the inhibition in vivo at 10000 µg/mL in assay [2] came to 44%.

A word on the IC50: it is the point on the concentration scale where inhibition reaches its midpoint.

(Values after US10000476B2, “Pyridone derivative, pharmaceutical containing the same and methods of use thereof” (KAKEN PHARMACEUTICAL CO., LTD., priority 2011, dated 2018).)
